According to US12678509B2, “Inhibitor of apoptosis (IAP) protein antagonists” (Sanford Burnham Prebys Medical Discovery Institute, priority 2019, dated 2026):

Experiments:
[1] = test system: MOLM 13; experiment: Cell viability (CellTiter-Glo), 6-day compound treatment; type: cell-based, Human; settings: Homo sapiens, MOLM-13, 144 h, read-out: MOLM 13 Viability 6 d IC50
Experimental: (§1) The compound 18a was tested in 16 different cell lines. For 6-day compound treatment 1700 cells per well were plated in a 384-well plate (Corning #781098) and incubated overnight at 37° C./5% CO2. The following day, compounds in 10-fold dilutions were added to the plates and the plates were incubated for 6 days. Afterwards, 20 μL CellTiter-Glo reagent (Promega, #G7570) was added to each well outside of the incubator and the plates were read for luminescence on a Spark® multimode microplate reader (Tecan). Data was fit in GraphPad Prism 8 to a nonlinear regression curve to determine the IC50 of the compounds. […]

[2] = test system: NB-4; experiment: Cell viability (CellTiter-Glo); type: cell-based, Human; settings: Homo sapiens, NB-4, 72 h, read-out: NB-4 Viability 72 h IC50
Experimental: as §1, with “The following day, compounds in 10-fold dilutions were added to the plates and the plates were incubated for 6 days.” left out

[3] = test system: SKOV-3; experiment: Cell viability (CellTiter-Glo), 48 hrs; type: cell-based; settings: Homo sapiens, SK-OV-3, 48 h, read-out: SKOV-3 Viability 48 h IC50
Experimental: One thousand seven hundred cells per well were plated in a 384 well plate and incubated overnight at 37° C./5% CO2. The following day, compounds in 10-fold dilutions were added to the plates and the plates returned to the incubator for 48 hrs. 48 hrs later, plates were removed to the bench and 20 μL CellTiter-Glo reagent was added to each well and the plates were read for luminescence on a Spark® multimode microplate reader (Tecan). Data were fit using PRISM to a nonlinear regression curve to determine the IC50 of the compounds.

[4] = biological target: BIR3 domain of cIAP1 (Homo sapiens, UniProt Q13490); experiment: Fluorescence polarization assay; type: binding; settings: SMAC-FITC probe, Ki calculated from IC50
Experimental: Binding of compounds to ML-IAP and BIR3 domain of cIAP1, cIAP2 and XIAP was determined by fluorescence polarization. Assay buffer was 100 mM KH2PO4 at pH 7.5, 50 μM ZnSO4, 1 mM TCEP (Tris(2-carboxyethyl)phosphine hydrochloride) and 50 nM SMAC-FITC probe (AbuRPF-K(5-Fam)-NH2) as described by Z. Nikolovska-Coleska et al.^9. cIAP1 and XIAP were present at 800 nM while cIAP2 and MLIAP were present at 1.5 μM. Compounds in 3-fold dilutions were added to the plates ranging from 30 μM to 1.5 nM. Assays were run in 384-well black plates read (Greiner Bio-One #784076) in an Analyst in fluorescence polarization mode with excitation at 485 nm and emission at 535 nm. Data was fit to a nonlinear regression curve in GraphPad Prism 8 to determine the IC50 values of the compounds. Ki's were then calculated from the IC50 values using equation: Ki=[I]50/([L]50/Kd+[P]0/Kd+1) formulated by Z. Nikolovska-Coleska et al.

[5] = test system: latently infected cell line Jurkat 2D10; experiment: HIV Jurkat 2D10 cells GFP+ assay (reversal of HIV latency); type: cell-based; settings: Homo sapiens, Jurkat, 48 h, read-out: Jurkat 2D10 GFP+ EC50
Experimental: Several compounds (Table 5) were tested for their efficacy in the reversal of HIV latency in the latently infected cell line Jurkat 2D10. Jurkat 2D10 cells were treated with different doses of the compounds, or one of the following compounds: BV-6, SM-164, Birinapant, LCL-161, GDC-0152, AT-406 for 48 hours. Reversal of HW latency was evaluated by analyzing GFP expression using flow cytometry. Induction of GFP expression was compared to baseline GFP levels detected in the absence of treatment.

Sequence of BIR3 domain of cIAP1 (Q13490 253-363 limits assumed): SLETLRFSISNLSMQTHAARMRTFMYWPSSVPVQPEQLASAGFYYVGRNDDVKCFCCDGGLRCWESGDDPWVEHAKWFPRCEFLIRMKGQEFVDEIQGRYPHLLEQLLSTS

In the case of `CN[C@@H](C)C(=O)N[C@H]1CCS[C@H]2CC(C)(C)[C@@H](C(=O)N[C@H]3c4ccccc4C[C@H]3OCC#Cc3cccc(C#CCO[C@@H]4Cc5ccccc5[C@@H]4NC(=O)[C@H]4N5C(=O)[C@@H](NC(=O)[C@H](C)NC)CCS[C@H]5CC4(C)C)c3)N2C1=O` [Compound 18d], the IC50 [1] is reported as 100 to 1000 nM, the IC50 [2] is reported as < 10 nM and the IC50 [3] is reported as < 10 nM. For the same compound, the Ki [4] was ≤ 50 nM and the EC50 [5] was < 1 nM.

`CN[C@@H](C)C(=O)N[C@H]1CCS[C@H]2CC(C)(C)[C@@H](C(=O)N[C@H]3c4ccccc4C[C@H]3OCc3ccc(-c4ccc(CO[C@@H]5Cc6ccccc6[C@@H]5NC(=O)[C@H]5N6C(=O)[C@@H](NC(=O)[C@H](C)NC)CCS[C@H]6CC5(C)C)cc4)cc3)N2C1=O` [Compound 18f, (2S)-1-{[(4S,7S,9aS)-7-{[(1S,2R)-2-({4-[4-({[(1S,2R)-1-({[(4S,7S,9aS)-8,8-Dimethyl-4-{[(2S)-2-(methylammonio)propanoyl]amino}-5-oxooctahydropyrrolo[2,1-b][1,3]thiazepin-7-yl]carbonyl}amino)-2,3-dihydro-1H-inden-2-yl]oxy}methyl)phenyl]benzyl}oxy)-2,3-dihydro-1H-inden-1-yl]carbamoyl}-8,8-dimethyl-5-oxooctahydropyrrolo[2,1-b][1,3]thiazepin-4-yl]amino}-N-methyl-1-oxopropan-2-ammonium dichloride] was tested, and the IC50 [1] was 100 to 1000 nM, the IC50 [2] was < 10 nM and the IC50 [3] was < 10 nM. For the same compound, the Ki [4] was 50 to 100 nM and the EC50 [5] was 1 to 10 nM.

With `CN[C@@H](C)C(=O)N[C@H]1CCS[C@H]2CC(C)(C)[C@@H](C(=O)N[C@H]3c4ccccc4C[C@H]3OCCS(=O)(=O)CCO[C@@H]3Cc4ccccc4[C@@H]3NC(=O)[C@H]3N4C(=O)[C@@H](NC(=O)[C@H](C)NC)CCS[C@H]4CC3(C)C)N2C1=O` [Compound 18h, (2S)-1-{[(4S,7S,9aS)-7-{[(1S,2R)-2-{2-[(2-{[(1S,2R)-1-({[(4S,7S,9aS)-8,8-Dimethyl-4-{[(2S)-2-(methylammonio)propanoyl]amino}-5-oxooctahydropyrrolo[2,1-b][1,3]thiazepin-7-yl]carbonyl}amino)-2,3-dihydro-1H-inden-2-yl]oxy}ethyl)sulfonyl]ethoxy}-2,3-dihydro-1H-inden-1-yl]carbamoyl}-8,8-dimethyl-5-oxooctahydropyrrolo[2,1-b][1,3]thiazepin-4-yl]amino}-N-methyl-1-oxopropan-2-ammonium dichloride] the IC50 [2] was < 10 nM, the IC50 [3] was 10 to 100 nM and the Ki [4] was ≤ 50 nM. It also gave an EC50 [5] of 10 to 100 nM.

For `CN[C@@H](C)C(=O)N[C@H]1CCS[C@H]2CC(C)(C)[C@@H](C(=O)N[C@H]3c4ccccc4C[C@H]3OCC#CCO[C@@H]3Cc4ccccc4[C@@H]3NC(=O)[C@H]3N4C(=O)[C@@H](NC(=O)[C@H](C)NC)CCS[C@H]4CC3(C)C)N2C1=O` [Compound 18j], the IC50 [1] was 1000 to 10000 nM, the IC50 [2] was < 10 nM and the IC50 [3] was 10 to 100 nM. The Ki [4] was ≤ 50 nM and the EC50 [5] was 1000 to 10000 nM.

Work on `CNC(C)(C)C(=O)N[C@H]1CCS[C@H]2CC(C)(C)[C@@H](C(=O)N[C@H]3c4ccccc4C[C@H]3OCC#CC#CCO[C@@H]3Cc4ccccc4[C@@H]3NC(=O)[C@H]3N4C(=O)[C@@H](NC(=O)C(C)(C)NC)CCS[C@H]4CC3(C)C)N2C1=O` [Compound 18k, 1-{[(4S,7S,9aS)-7-({(1S,2R)-2-[(6-{[(1S,2R)-1-({[(4S,7S,9aS)-8,8-Dimethyl-4-{[2-methyl-2-(methylammonio)propanoyl]amino}-5-oxooctahydropyrrolo[2,1-b][1,3]thiazepin-7-yl]carbonyl}amino)-2,3-dihydro-1H-inden-2-yl]oxy}hexa-2,4-diyn-1-yl)oxy]-2,3-dihydro-1H-inden-1-yl}carbamoyl)-8,8-dimethyl-5-oxooctahydropyrrolo[2,1-b][1,3]thiazepin-4-yl]amino}-N,2-dimethyl-1-oxopropan-2-ammonium dichloride] yielded an IC50 [1] of 1000 to 10000 nM, an IC50 [2] of 10 to 100 nM and an IC50 [3] of 100 to 1000 nM. The Ki [4] was 50 to 100 nM and the EC50 [5] was > 10000 nM.

`CN[C@@H](C)C(=O)N[C@H]1CCS[C@H]2CC(C)(C)[C@@H](C(=O)N[C@H](CCC(=O)NCCNC(=O)CC[C@@H](NC(=O)[C@H]3N4C(=O)[C@@H](NC(=O)[C@H](C)NC)CCS[C@H]4CC3(C)C)c3ccccc3)c3ccccc3)N2C1=O` [Compound 18l, (2S)-1-{[(4S,7S,9aS)-74{(1R)-4-[(2-{[(4R)-4-({[(4S,7S,9aS)-8,8-Dimethyl-4-{[(2S)-2-(methylammonio)propanoyl]amino}-5-oxooctahydropyrrolo[2,1-b][1,3]thiazepin-7-yl]carbonyl}amino)-4-phenylbutanoyl]amino}ethyl)amino]-4-oxo-1-phenylbutyl}carbamoyl)-8,8-dimethyl-5-oxooctahydropyrrolo[2,1-b][1,3]thiazepin-4-yl]amino}-N-methyl-1-oxopropan-2-ammonium dichloride] was tested, and the IC50 [2] was 10 to 100 nM, the IC50 [3] was 100 to 1000 nM and the Ki [4] was ≤ 50 nM. The EC50 [5] was 100 to 1000 nM.

For `C=CCC1(CC=C)C[C@@H]2SCC[C@H](NC(=O)[C@H](C)NC)C(=O)N2[C@@H]1C(=O)N[C@H]1c2ccccc2C[C@H]1OCC#CC#CCO[C@@H]1Cc2ccccc2[C@@H]1NC(=O)[C@H]1N2C(=O)[C@@H](NC(=O)[C@H](C)NC)CCS[C@H]2CC1(CC=C)CC=C` [Compound 18n, (2S)-2-{[(4S,7S,9aS)-7-{[(1S,2R)-2-[(6-{[(1S,2R)-1-[(4S,7S,9aS)-4-[(2S)-2-(Methylamino)propanamido]-5-oxo-8,8-bis(prop-2-en-1-yl)-octahydropyrrolo[2,1-b][1,3]thiazepine-7-amido]-2,3-dihydro-1H-inden-2-yl]oxy}hexa-2,4-diyn-1-yl)oxy]-2,3-dihydro-1H-inden-1-yl]carbamoyl}-5-oxo-8,8-bis(prop-2-en-1-yl)-octahydropyrrolo[2,1-b][1,3]thiazepin-4-yl]carbamoyl}-2-(methylazaniumyl)ethanide dichloride], the IC50 [1] was 100 to 1000 nM, the IC50 [3] was 10 to 100 nM and the Ki [4] was 50 to 100 nM. The EC50 [5] was 10 to 100 nM.

`CN[C@@H](C)C(=O)N[C@H]1CCS[C@H]2C[C@H](O)[C@@H](C(=O)N[C@H]3c4ccccc4C[C@H]3OCC#CC#CCO[C@@H]3Cc4ccccc4[C@@H]3NC(=O)[C@@H]3[C@@H](O)C[C@@H]4SCC[C@H](NC(=O)[C@H](C)NC)C(=O)N43)N2C1=O` [Compound 18p, [(1S)-1-{[(4S,7S,8S,9aS)-7-{[(1S,2R)-2-[(6-{[(1S,2R)-1-[(4S,7S,8S,9aS)-8-Hydroxy-4-[(2S)-2-(methylazaniumyl)propanamido]-5-oxo-octahydropyrrolo[2,1-b][1,3]thiazepine-7-amido]-2,3-dihydro-1H-inden-2-yl]oxy}hexa-2,4-diyn-1-yl)oxy]-2,3-dihydro-1H-inden-1-yl]carbamoyl}-8-hydroxy-5-oxo-octahydropyrrolo[2,1-b][1,3]thiazepin-4-yl]carbamoyl}ethyl](methyl)azanium dichloride] gave an EC50 [5] of 100 to 1000 nM.

In the case of `CN[C@@H](C)C(=O)N[C@H]1CCS[C@H]2CC3(CCCC3)[C@@H](C(=O)N[C@H]3c4ccccc4C[C@H]3OCC#CC#CCO[C@@H]3Cc4ccccc4[C@@H]3NC(=O)[C@H]3N4C(=O)[C@@H](NC(=O)[C@H](C)NC)CCS[C@H]4CC34CCCC4)N2C1=O` [Compound 18r], the EC50 [5] is reported as 10 to 100 nM.
